# Results from patent publication US20250122174A1 (Shenzhen Yuanli Shenwan Innovative Medicine Co., Ltd., priority 2022, published 2025).
# Target: HPK1 (Homo sapiens (Human), UniProt Q92918)
# Experiment: HPK1 Inhibition Assay (ADP-Glo kinase assay)
# Assay type: biochemical
# Conditions: ATP 10 μM
# In short: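 ADP-Glo luminescence read-out after 1 h room-temperature kinase reaction with 10 μM ATP and 0.1 μg/ml MBP. Recombinant human HPK1 at 7.5 ng/μl; buffer 40 mM Tris pH 7.5, 20 mM MgCl2. Compounds serially diluted 5-fold over 10 points from 10 mM DMSO stock.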
# Chain of HPK1 (Q92918 1-346 limits assumed): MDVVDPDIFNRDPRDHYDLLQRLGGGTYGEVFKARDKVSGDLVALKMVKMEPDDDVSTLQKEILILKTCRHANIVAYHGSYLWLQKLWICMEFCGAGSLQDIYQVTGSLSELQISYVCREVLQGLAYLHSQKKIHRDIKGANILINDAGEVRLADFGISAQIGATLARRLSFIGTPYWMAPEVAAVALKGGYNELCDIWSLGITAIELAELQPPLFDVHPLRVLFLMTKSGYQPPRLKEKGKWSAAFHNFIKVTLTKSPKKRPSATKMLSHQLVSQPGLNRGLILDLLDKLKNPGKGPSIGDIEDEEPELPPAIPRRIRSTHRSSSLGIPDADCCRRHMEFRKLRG
row,Compound,IC50 [nM]
1,"[2H]C([2H])([2H])n1ncc2c(N3C[C@@H](C)[C@@H](N)C3)c(NC(=O)c3ccc(=O)n(-c4c(F)cccc4F)n3)ccc21 [Example 171, N-(4-((3R,4R)-3-amino-4-methylpyrrolidin-1-yl)-1-(methyl-d3)-1H-indazol-5-yl)-1-(2,6-difluorophenyl)-6-oxo-1,6-dihydropyridazine-3-carboxamide]",< 100
2,"[2H]C([2H])([2H])n1ncc2c(N3C[C@H](N)C4(CC4)C3)c(NC(=O)c3ccc(=O)n(-c4c(F)cccc4F)n3)ccc21 [Example 172, (R)-N-(4-(7-amino-5-azaspiro[2.4]heptan-5-yl)-1-(methyl-d3)-1H-indazol-5-yl)-1-(2,6-difluorophenyl)-6-oxo-1,6-dihydropyridazine-3-carboxamide]",< 100
3,"C[C@H]1CN(c2c(NC(=O)c3ccc(=O)n(-c4c(F)cccc4F)n3)ccc3c2cnn3C)C[C@@H]1N [Example 173, N-(4-((3R,4S)-3-amino-4-methylpyrrolidin-1-yl)-1-methyl-1H-indazol-5-yl)-1-(2,6-difluorophenyl)-6-oxo-1,6-dihydropyridazine-3-carboxamide]",< 100
4,"Cn1ncc2c(N3C[C@H](N)C4(CC4)C3)c(NC(=O)c3ccc(=O)n(-c4c(F)cccc4F)n3)ccc21 [Example 174, (R)-N-(4-(7-amino-5-azaspiro[2.4]heptan-5-yl)-1-methyl-1H-indazol-5-yl)-1-(2,6-difluorophenyl)-6-oxo-1,6-dihydropyridazine-3-carboxamide]",< 100
5,"Cn1cc2c(N3CC[C@@H](N)C3)c(NC(=O)c3ccc(=O)n(-c4c(F)cccc4F)n3)ccc2n1 [Example 175, (R)—N-(4-(3-aminopyrrolidin-1-yl)-2-methyl-2H-indazol-5-yl)-1-(2,6-difluorophenyl)-6-oxo-1,6-dihydropyridazine-3-carboxamide]",< 100
6,"Cn1cc2c(N3CCC[C@@H](N)C3)c(NC(=O)c3ccc(=O)n(-c4c(F)cccc4F)n3)ccc2n1 [Example 176, (R)-N-(4-(3-aminopiperidin-1-yl)-2-methyl-2H-indazol-5-yl)-1-(2,6-difluorophenyl)-6-oxo-1,6-dihydropyridazine-3-carboxamide]",< 100
7,"Cn1cc2c(N3CCC(N)CC3)c(NC(=O)c3ccc(=O)n(-c4c(F)cccc4F)n3)ccc2n1 [Example 177, N-(4-(4-aminopiperidin-1-yl)-2-methyl-2H-indazol-5-yl)-1-(2,6-difluorophenyl)-6-oxo-1,6-dihydropyridazine-3-carboxamide]",< 100
8,"[2H]C([2H])([2H])n1cc2c(N3C[C@@H](C)[C@@H](N)C3)c(NC(=O)c3ccc(=O)n(-c4c(F)cccc4F)n3)ccc2n1 [Example 178, N-(4-((3R,4R)-3-amino-4-methylpyrrolidin-1-yl)-2-(methyl-d3)-2H-indazol-5-yl)-1-(2,6-difluorophenyl)-6-oxo-1,6-dihydropyridazine-3-carboxamide]",< 100
9,"CC(C)n1ncc2c(N3CC[C@@H](N)C3)c(NC(=O)c3ccc(=O)n(-c4c(F)cccc4F)n3)ccc21 [Example 179, N-[4-[(3R)-3-aminopyrrolidin-1-yl]-1-isopropyl-indazol-5-yl]-1-(2,6-difluorophenyl)-6-oxo-pyridazine-3-carboxamide]",< 100
10,"CC(C)n1ncc2c(N3C[C@@H](C)[C@@H](N)C3)c(NC(=O)c3ccc(=O)n(-c4c(F)cccc4F)n3)ccc21 [Example 180, N-(4-((3R,4R)-3-amino-4-methylpyrrolidin-1-yl)-1-isopropyl-1H-indazol-5-yl)-1-(2,6-difluorophenyl)-6-oxo-1,6-dihydropyridazine-3-carboxamide]",< 100
11,"CC(C)n1ncc2c(N3CCC[C@@H]3CN)c(NC(=O)c3ccc(=O)n(-c4c(F)cccc4F)n3)ccc21 [Example 181, (R)-N-(4-(2-(aminomethyl)pyrrolidin-1-yl)-1-isopropyl-1H-indazol-5-yl)-1-(2,6-difluorophenyl)-6-oxo-1,6-dihydropyridazine-3-carboxamide]",< 100
12,"CC(C)n1ncc2c(N3C[C@H](N)C4(CC4)C3)c(NC(=O)c3ccc(=O)n(-c4c(F)cccc4F)n3)ccc21 [Example 182, (R)-N-(4-(7-amino-5-azaspiro[2.4]heptan-5-yl)-1-isopropyl-1H-indazol-5-yl)-1-(2,6-difluorophenyl)-6-oxo-1,6-dihydropyridazine-3-carboxamide]",< 100
13,"CC(C)n1ncc2c(N3CCC[C@@H](N)C3)c(NC(=O)c3ccc(=O)n(-c4c(F)cccc4F)n3)ccc21 [Example 183, (R)-N-(4-(3-aminopiperidin-1-yl)-1-isopropyl-1H-indazol-5-yl)-1-(2,6-difluorophenyl)-6-oxo-1,6-dihydropyridazine-3-carboxamide]",< 100
14,"Cc1cc(NC(=O)c2ccc(=O)n(-c3c(F)cccc3F)n2)c(N2CC[C@@H](N)C2)c2cnn(C(C)C)c12 [Example 185, (R)-N-(4-(3-aminopyrrolidin-1-yl)-1-isopropyl-7-methyl-1H-indazol-5-yl)-1-(2,6-difluorophenyl)-6-oxo-1,6-dihydropyridazine-3-carboxamide]",< 100
15,"CC(C)n1ncc2c(N3C[C@H](N)C(C)(C)C3)c(NC(=O)c3ccc(=O)n(-c4c(F)cccc4F)n3)ccc21 [Example 186, (R)-N-(4-(4-amino-3,3-dimethylpyrrolidin-1-yl)-1-isopropyl-1H-indazol-5-yl)-1-(2,6-difluorophenyl)-6-oxo-1,6-dihydropyridazine-3-carboxamide]",< 100
16,"CC(C)n1ncc2c(N3C[C@@H](N)C(C)(C)C3)c(NC(=O)c3ccc(=O)n(-c4c(F)cccc4F)n3)ccc21 [Example 187, (S)-N-(4-(4-amino-3,3-dimethylpyrrolidin-1-yl)-1-isopropyl-1H-indazol-5-yl)-1-(2,6-difluorophenyl)-6-oxo-1,6-dihydropyridazine-3-carboxamide]",< 100
17,"CC(C)n1ncc2c(N3CC[C@@H](N)C3)c(NC(=O)c3ccc(=O)n(-c4c(F)cccc4F)n3)cc(F)c21 [Example 188, (R)-N-(4-(3-aminopyrrolidin-1-yl)-7-fluoro-1-isopropyl-1H-indazol-5-yl)-1-(2,6-difluorophenyl)-6-oxo-1,6-dihydropyridazine-3-carboxamide]",< 100
18,"CC(C)n1ncc2c(N3C[C@H](N)C4(CC4)C3)c(NC(=O)c3ccc(=O)n(-c4c(F)cccc4F)n3)cc(F)c21 [Example 189, (R)-N-(4-(7-amino-5-azaspiro[2.4]heptan-5-yl)-7-fluoro-1-isopropyl-1H-indazol-5-yl)-1-(2,6-difluorophenyl)-6-oxo-1,6-dihydropyridazine-3-carboxamide]",< 100
19,"CC(C)n1nc(Cl)c2c(N3CC[C@@H](N)C3)c(NC(=O)c3ccc(=O)n(-c4c(F)cccc4F)n3)cc(F)c21 [Example 190, (R)-N-(4-(3-aminopyrrolidin-1-yl)-3-chloro-7-fluoro-1-isopropyl-1H-indazol-5-yl)-1-(2,6-difluorophenyl)-6-oxo-1,6-dihydropyridazine-3-carboxamide]",< 100
20,"CC(C)n1nc(Cl)c2c(N3C[C@@H](C)[C@@H](N)C3)c(NC(=O)c3ccc(=O)n(-c4c(F)cccc4F)n3)ccc21 [Example 191, N-(4-((3R,4R)-3-amino-4-methylpyrrolidin-1-yl)-3-chloro-1-isopropyl-1H-indazol-5-yl)-1-(2,6-difluorophenyl)-6-oxo-1,6-dihydropyridazine-3-carboxamide]",< 100
21,"Cc1nn(C(C)C)c2ccc(NC(=O)c3ccc(=O)n(-c4c(F)cccc4F)n3)c(N3C[C@@H](C)[C@@H](N)C3)c12 [Example 192, N-(4-((3R,4R)-3-amino-4-methylpyrrolidin-1-yl)-1-isopropyl-3-methyl-1H-indazol-5-yl)-1-(2,6-difluorophenyl)-6-oxo-1,6-dihydropyridazine-3-carboxamide]",< 100
22,"CC(C)n1ncc2c(N3C[C@@H](C)[C@@H](N)C3)c(NC(=O)c3ccc(=O)n(-c4c(F)cccc4F)n3)cc(F)c21 [Example 193, N-(4-((3R,4R)-3-amino-4-methylpyrrolidin-1-yl)-7-fluoro-1-isopropyl-1H-indazol-5-yl)-1-(2,6-difluorophenyl)-6-oxo-1,6-dihydropyridazine-3-carboxamide]",< 100
23,"CC(C)n1ncc2c(N3C[C@@H]4NCCO[C@H]4C3)c(NC(=O)c3ccc(=O)n(-c4c(F)cccc4F)n3)ccc21 [Example 194, 1-(2,6-difluorophenyl)-N-(4-((4aS,7aS)-hexahydropyrrolo[3,4-b][1,4]oxazin-6(2H)-yl)-1-isopropyl-1H-indazol-5-yl)-6-oxo-1,6-dihydropyridazine-3-carboxamide]",< 100
24,"Cc1nn(C(C)C)c2ccc(NC(=O)c3ccc(=O)n(-c4c(F)cccc4F)n3)c(N3CC[C@@H](N)C3)c12 [Example 195, (R)-N-(4-(3-aminopyrrolidin-1-yl)-1-isopropyl-3-methyl-1H-indazol-5-yl)-1-(2,6-difluorophenyl)-6-oxo-1,6-dihydropyridazine-3-carboxamide]",< 100
25,"CC(C)n1nc(F)c2c(N3C[C@@H](C)[C@@H](N)C3)c(NC(=O)c3ccc(=O)n(-c4c(F)cccc4F)n3)ccc21 [Example 198, N-(4-((3R,4R)-3-amino-4-methylpyrrolidin-1-yl)-3-fluoro-1-isopropyl-1H-indazol-5-yl)-1-(2,6-difluorophenyl)-6-oxo-1,6-dihydropyridazine-3-carboxamide]",< 100
26,"CC(C)n1nc(F)c2c(N3C[C@H](N)C4(CC4)C3)c(NC(=O)c3ccc(=O)n(-c4c(F)cccc4F)n3)ccc21 [Example 199, (R)-N-(4-(7-amino-5-azaspiro[2.4]heptan-5-yl)-3-fluoro-1-isopropyl-1H-indazol-5-yl)-1-(2,6-difluorophenyl)-6-oxo-1,6-dihydropyridazine-3-carboxamide]",100 to 1000
27,"CO[C@@H]1CN(c2c(NC(=O)c3ccc(=O)n(-c4c(F)cccc4F)n3)ccc3c2cnn3C(C)C)C[C@H]1N [Example 201, N-(4-((35,4S)-3-amino-4-methoxypyrrolidin-1-yl)-1-isopropyl-1H-indazol-5-yl)-1-(2,6-difluorophenyl)-6-oxo-1,6-dihydropyridazine-3-carboxamide]",< 100
